“And” between values parts separate entries of the source, which are not always exact repeats. Equal entries are not always repeated. “Also recorded” adds a separate entry of the source.
Experiments:
E. coli strain WP2 uvrA = experiment: Bacterial reverse mutation test; type: cell-based
hERG = hERG (Homo sapiens, UniProt Q12809); experiment: hERG electrophysiology
CYP2C9 = CYP2C9 (Homo sapiens, UniProt P11712); experiment: CYP inhibition, LC–MS/MS assay in human liver microsomes; details: probe tolbutamide
CYP2C9, sequence (P11712 whole entry): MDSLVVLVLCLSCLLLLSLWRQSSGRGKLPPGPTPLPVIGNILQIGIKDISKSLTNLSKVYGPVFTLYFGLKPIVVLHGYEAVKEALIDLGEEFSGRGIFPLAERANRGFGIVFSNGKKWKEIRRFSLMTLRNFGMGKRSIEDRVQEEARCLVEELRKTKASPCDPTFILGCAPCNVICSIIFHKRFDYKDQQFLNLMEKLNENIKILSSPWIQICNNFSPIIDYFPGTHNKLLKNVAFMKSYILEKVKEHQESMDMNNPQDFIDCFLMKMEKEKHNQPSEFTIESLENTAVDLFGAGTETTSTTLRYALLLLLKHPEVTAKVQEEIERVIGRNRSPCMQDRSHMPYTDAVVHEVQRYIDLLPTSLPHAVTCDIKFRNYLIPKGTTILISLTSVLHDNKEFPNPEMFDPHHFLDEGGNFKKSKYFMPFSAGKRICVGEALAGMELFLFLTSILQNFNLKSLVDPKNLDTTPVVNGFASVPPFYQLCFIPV

[1] = system: GPCRs, ion channels, nuclear receptors, transporters; experiment: Receptor lead profiling panel; details: 10 μM
[2] = 90-day subchronic toxicity study; type: in vivo, Sprague-Dawley rats
[3] = Pharmacokinetics of S3643, single iv or oral dose; type: in vivo, Sprague-Dawley rats; details: for AUC(0-t): AUClast
CYP2D6 = CYP2D6 (Homo sapiens, UniProt P10635); experiment: CYP inhibition, LC–MS/MS assay in human liver microsomes; details: probe bufuralol
CYP2D6, sequence (P10635 whole entry): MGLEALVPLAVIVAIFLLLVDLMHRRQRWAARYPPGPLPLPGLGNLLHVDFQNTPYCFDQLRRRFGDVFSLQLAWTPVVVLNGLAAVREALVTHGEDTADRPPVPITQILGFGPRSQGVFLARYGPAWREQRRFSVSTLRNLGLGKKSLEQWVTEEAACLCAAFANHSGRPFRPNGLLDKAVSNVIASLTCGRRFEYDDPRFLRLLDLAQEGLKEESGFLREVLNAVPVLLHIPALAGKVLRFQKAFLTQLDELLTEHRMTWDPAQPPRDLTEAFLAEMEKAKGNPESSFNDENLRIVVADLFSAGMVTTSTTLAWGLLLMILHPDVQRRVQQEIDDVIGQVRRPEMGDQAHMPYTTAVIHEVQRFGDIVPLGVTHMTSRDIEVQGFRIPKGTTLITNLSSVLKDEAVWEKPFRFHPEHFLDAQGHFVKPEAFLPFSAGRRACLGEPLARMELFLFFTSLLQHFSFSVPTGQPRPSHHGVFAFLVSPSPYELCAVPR

[4] = 28-day dose-range finding toxicity study; type: in vivo, Sprague-Dawley rats; details: 10, 30, 100 mg/kg bw/day (food ad-mix)
[5] = Toxicokinetics in the 90-day dietary study; type: in vivo, Sprague-Dawley rats; details: for AUC0–24 h/dose / Cmax/dose: M+F combined
[6] = system: Chinese hamster ovary cells (CHO-WBL); experiment: In vitro micronucleus test; type: cell-based
CYP3A4 = CYP3A4 (Homo sapiens, UniProt P08684); experiment: CYP inhibition, LC–MS/MS assay in human liver microsomes; details: for inhibition at 10 µM: human, human liver microsomes
CYP3A4, sequence (P08684 whole entry): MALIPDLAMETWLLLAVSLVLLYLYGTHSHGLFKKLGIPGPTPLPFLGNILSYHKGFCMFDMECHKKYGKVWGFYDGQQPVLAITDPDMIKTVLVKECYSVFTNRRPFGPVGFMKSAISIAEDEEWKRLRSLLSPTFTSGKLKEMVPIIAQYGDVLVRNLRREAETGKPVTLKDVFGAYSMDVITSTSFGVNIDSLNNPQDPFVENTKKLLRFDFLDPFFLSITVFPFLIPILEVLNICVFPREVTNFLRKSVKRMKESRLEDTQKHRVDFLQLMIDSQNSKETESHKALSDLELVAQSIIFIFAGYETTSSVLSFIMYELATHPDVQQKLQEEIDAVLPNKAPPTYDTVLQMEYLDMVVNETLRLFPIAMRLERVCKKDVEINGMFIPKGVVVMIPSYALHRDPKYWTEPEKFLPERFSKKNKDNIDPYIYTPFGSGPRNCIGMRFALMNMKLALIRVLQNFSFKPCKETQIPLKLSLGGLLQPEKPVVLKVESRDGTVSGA

CYP2C19 = CYP2C19 (Homo sapiens, UniProt P33261); experiment: as above; details: probe S-mephenytoin
CYP2C19, sequence (P33261 whole entry): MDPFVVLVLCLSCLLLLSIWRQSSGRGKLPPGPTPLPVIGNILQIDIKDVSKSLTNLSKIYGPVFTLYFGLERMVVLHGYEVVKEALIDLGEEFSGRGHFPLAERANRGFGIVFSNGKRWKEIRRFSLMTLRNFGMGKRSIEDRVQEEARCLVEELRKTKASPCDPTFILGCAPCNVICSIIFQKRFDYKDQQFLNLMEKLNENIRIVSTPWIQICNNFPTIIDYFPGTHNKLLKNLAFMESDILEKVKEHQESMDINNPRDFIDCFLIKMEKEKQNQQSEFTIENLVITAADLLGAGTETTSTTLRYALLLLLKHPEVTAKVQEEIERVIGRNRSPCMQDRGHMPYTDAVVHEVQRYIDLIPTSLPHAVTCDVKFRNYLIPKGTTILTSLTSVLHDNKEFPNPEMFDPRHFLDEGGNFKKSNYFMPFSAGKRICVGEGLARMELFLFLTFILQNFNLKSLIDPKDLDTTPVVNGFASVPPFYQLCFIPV

[7] = system: Primary human lymphocytes; experiment: In vitro chromosome aberration test
[8] = In vivo metabolism of S3643, single oral dose 100 mg/kg bw; design: species or system Sprague-Dawley rats
[9] = 10, 30, 100 mg/kg bw/day (food ad-mix)
[10] = female, Sprague-Dawley, rat, plasma, iv, 1 mg/kg
[11] = female, Sprague-Dawley, rat, plasma, po
[12] = female, Sprague-Dawley, rat, plasma, po, 10 mg/kg
[13] = female, Sprague-Dawley, rat, plasma, po, 30 mg/kg
[14] = female, Sprague-Dawley, rat, plasma, po, 100 mg/kg
[15] = female, iv 1.0 mg/kg bw, 1 mg/kg
[16] = male, Sprague-Dawley, rat, plasma, iv, 1 mg/kg
[17] = male, Sprague-Dawley, rat, plasma, po
[18] = male, Sprague-Dawley, rat, plasma, po, 10 mg/kg
[19] = male, Sprague-Dawley, rat, plasma, po, 30 mg/kg
[20] = male, Sprague-Dawley, rat, plasma, po, 100 mg/kg
[21] = both, Sprague-Dawley, rat, plasma, oral, 100 mg/kg bw
[22] = rat plasma at 1 h, males and females combined

hERG, sequence (Q12809 whole entry): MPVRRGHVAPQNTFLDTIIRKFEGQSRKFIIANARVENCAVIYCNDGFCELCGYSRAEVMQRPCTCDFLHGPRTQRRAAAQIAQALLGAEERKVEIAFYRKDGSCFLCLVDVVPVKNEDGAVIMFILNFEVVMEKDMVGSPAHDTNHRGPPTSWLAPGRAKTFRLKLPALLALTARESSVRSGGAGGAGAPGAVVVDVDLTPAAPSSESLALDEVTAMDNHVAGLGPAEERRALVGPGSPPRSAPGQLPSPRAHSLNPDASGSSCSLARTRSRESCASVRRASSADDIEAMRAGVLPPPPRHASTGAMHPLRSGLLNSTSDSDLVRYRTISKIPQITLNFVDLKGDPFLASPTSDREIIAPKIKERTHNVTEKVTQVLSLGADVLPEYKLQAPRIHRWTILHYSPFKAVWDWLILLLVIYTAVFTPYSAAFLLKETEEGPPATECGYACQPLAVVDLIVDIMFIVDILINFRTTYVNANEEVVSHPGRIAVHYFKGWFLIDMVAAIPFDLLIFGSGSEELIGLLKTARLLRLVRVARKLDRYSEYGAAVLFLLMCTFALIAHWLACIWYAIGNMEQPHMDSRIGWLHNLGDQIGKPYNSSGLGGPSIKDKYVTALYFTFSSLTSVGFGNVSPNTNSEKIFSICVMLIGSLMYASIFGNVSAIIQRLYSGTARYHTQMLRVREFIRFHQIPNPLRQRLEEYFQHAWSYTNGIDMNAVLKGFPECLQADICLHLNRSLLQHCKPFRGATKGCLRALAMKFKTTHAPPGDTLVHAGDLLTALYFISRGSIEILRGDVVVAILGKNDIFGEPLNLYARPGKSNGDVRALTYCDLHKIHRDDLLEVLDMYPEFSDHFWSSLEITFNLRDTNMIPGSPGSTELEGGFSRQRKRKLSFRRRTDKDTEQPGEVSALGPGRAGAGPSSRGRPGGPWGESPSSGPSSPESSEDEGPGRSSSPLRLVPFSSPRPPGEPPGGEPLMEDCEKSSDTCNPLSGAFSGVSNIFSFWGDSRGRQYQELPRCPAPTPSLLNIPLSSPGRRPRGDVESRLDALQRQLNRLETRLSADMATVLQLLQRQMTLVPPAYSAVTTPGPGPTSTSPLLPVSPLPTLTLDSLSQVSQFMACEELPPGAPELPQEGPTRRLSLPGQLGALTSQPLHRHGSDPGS

COc1cccc(-c2n[nH]c(SCc3ccccn3)n2)c1OC [S3643, 2-(((3-(2,3-dimethoxyphenyl)-1H-1,2,4-triazol-5-yl)thio)methyl)pyridine]
Reverse mutation (in vitro), result (E. coli strain WP2 uvrA; 250–5000 μg/plate, plate incorporation and pre-incubation, ±S9): Negative
Mutagenicity, conclusion (E. coli strain WP2 uvrA; absence and presence of metabolic activation): not mutagenic
inhibition at 10 µM (hERG): < 10%
inhibition at 10 µM (CYP2C9): 8%
Significant responses (≥50% inhibition or stimulation) [1]: No significant responses; also recorded: No other significant off-target activities
Findings, adverse effects [2, 9]: No adverse test-article related findings
Findings, body weight [2, 9]: Lower body weight gain in females at 100 mg/kg/day
NOAEL ([2]; 90 days in diet, male and female rats, highest dose tested): 100 mg/kg bw/day
Mean body weight lower than controls ([2]; females, 100 mg/kg bw/day, beginning at Week 5): 7%
Absolute liver weight increase vs control ([2]; males, 100 mg/kg bw/day): 12.5%
Liver/body weight increase vs control ([2]; males, 100 mg/kg bw/day): 14.1%
Liver/brain weight increase vs control ([2]; males, 100 mg/kg bw/day): 13.5%
Margin of safety (NOAEL vs per capita intake 5 μg/kg bw/day) ([2]; rat, in vivo): > 20,000 fold
Fold increase in AUClast for 10-fold increase in oral dose ([3]; female): 16.8 fold
Tmax [3, 10]: 1.8 min
Vd [3, 10]: 0.325 L/kg
clearance [3, 10]: 8.03 mL/min/kg
half-life [3, 10]: 9.6 min
bioavailability [3, 11]: 67.4 to 116%
half-life [3, 11]: 53.4 to 99.6 min
Tmax [3, 12]: 15 min
bioavailability [3, 12]: 67.4%
half-life [3, 12]: 53.4 min
AUC(0-t) ([3]; female, Sprague-Dawley, rat, plasma, po, 10 mg/kg, oral 10 mg/kg bw): 14200 ng·h/mL
Cmax ([3]; female, Sprague-Dawley, rat, plasma, po, 10 mg/kg, Cmax, oral 10 mg/kg bw): 14900 ng/mL
Tmax [3, 13]: 15 min
bioavailability [3, 13]: 116%
half-life [3, 13]: 68.4 min
AUC(0-t) ([3]; female, Sprague-Dawley, rat, plasma, po, 30 mg/kg, oral 30 mg/kg bw): 73500 ng·h/mL
Cmax ([3]; female, Sprague-Dawley, rat, plasma, po, 30 mg/kg, Cmax, oral 30 mg/kg bw): 45400 ng/mL
Tmax [3, 14]: 22.8 min
bioavailability [3, 14]: 113%
half-life [3, 14]: 99.6 min
AUC(0-t) ([3]; female, Sprague-Dawley, rat, plasma, po, 100 mg/kg, oral 100 mg/kg bw): 239000 ng·h/mL
Cmax ([3]; female, Sprague-Dawley, rat, plasma, po, 100 mg/kg, Cmax, oral 100 mg/kg bw): 98900 ng/mL and 310 µM
CL as % of hepatic blood flow ([3]; female, iv): 14.5%
Vss as % of total body water volume ([3]; female, iv): 48.6%
AUC0-last/dose ([3]; female, iv 1.0 mg/kg bw): 2110 ng·h/mL/mg/kg
AUC0-last [3, 15]: 2110 ± 353 ng·h/mL
Cmax [3, 15]: 9840 ± 1880 ng/mL
AUC0-last/dose ([3]; female, oral gavage 10 mg/kg bw): 1423 ng·h/mL/mg/kg
AUC0-last/dose ([3]; female, oral gavage 30 mg/kg bw): 2450 ng·h/mL/mg/kg
AUC0-last/dose ([3]; female, oral gavage 100 mg/kg bw): 2393 ng·h/mL/mg/kg
Female/male ratio of mean AUClast ([3]; iv 1 mg/kg): 0.76
Female/male ratio of mean Cmax ([3]; iv 1 mg/kg): 0.91
Fold increase in AUClast for 10-fold increase in oral dose ([3]; male): 6.88 fold
Tmax [3, 16]: 1.8 min
Vd [3, 16]: 0.337 L/kg
clearance [3, 16]: 5.97 mL/min/kg
half-life [3, 16]: 11.4 min
bioavailability [3, 17]: 65.7 to 96%
half-life [3, 17]: 48 to 99.6 min
Tmax [3, 18]: 15 min
bioavailability [3, 18]: 95.5%
half-life [3, 18]: 48 min
AUC(0-t) ([3]; male, Sprague-Dawley, rat, plasma, po, 10 mg/kg, oral 10 mg/kg bw): 26600 ng·h/mL
Cmax ([3]; male, Sprague-Dawley, rat, plasma, po, 10 mg/kg, Cmax, oral 10 mg/kg bw): 32500 ng/mL
Tmax [3, 19]: 26.4 min
bioavailability [3, 19]: 96%
half-life [3, 19]: 58.2 min
AUC(0-t) ([3]; male, Sprague-Dawley, rat, plasma, po, 30 mg/kg, oral 30 mg/kg bw): 80300 ng·h/mL
Cmax ([3]; male, Sprague-Dawley, rat, plasma, po, 30 mg/kg, Cmax, oral 30 mg/kg bw): 50900 ng/mL
Tmax [3, 20]: 18.6 min
bioavailability [3, 20]: 65.7%
half-life [3, 20]: 99.6 min
AUC(0-t) ([3]; male, Sprague-Dawley, rat, plasma, po, 100 mg/kg, oral 100 mg/kg bw): 183000 ng·h/mL
Cmax ([3]; male, Sprague-Dawley, rat, plasma, po, 100 mg/kg, Cmax, oral 100 mg/kg bw): 78300 ng/mL and 238 µM
CL as % of hepatic blood flow ([3]; male, iv): 10.8%
Vss as % of total body water volume ([3]; male, iv): 50.4%
AUC0-last/dose ([3]; male, iv 1.0 mg/kg bw): 2790 ng·h/mL/mg/kg
AUC0-last ([3]; male, iv 1.0 mg/kg bw, 1 mg/kg): 2790 ± 187 ng·h/mL
Cmax ([3]; male, iv 1.0 mg/kg bw, 1 mg/kg): 10870 ± 1870 ng/mL
AUC0-last/dose ([3]; male, oral gavage 10 mg/kg bw): 2665 ng·h/mL/mg/kg
Cmax ([3]; male, oral gavage 10 mg/kg bw, 10 mg/kg): 32510 ± 7710 ng/mL
AUC0-last/dose ([3]; male, oral gavage 30 mg/kg bw): 2678 ng·h/mL/mg/kg
AUC0-last/dose ([3]; male, oral gavage 100 mg/kg bw): 1833 ng·h/mL/mg/kg
inhibition at 10 µM (CYP2D6): 22%
Findings [4]: No test-article related findings
AUC0–24 h/dose ([5]; Day 7, nominal 10 mg/kg bw): 574 ng·h/mL/mg/kg
Cmax/dose ([5]; Day 7, nominal 10 mg/kg bw): 31.9 ng/mL/mg/kg
AUC0–24 h/dose ([5]; Day 7, nominal 30 mg/kg bw): 1140 ng·h/mL/mg/kg
Cmax/dose ([5]; Day 7, nominal 30 mg/kg bw): 80.6 ng/mL/mg/kg
AUC0–24 h/dose ([5]; Day 7, nominal 100 mg/kg bw): 1280 ng·h/mL/mg/kg
Cmax/dose ([5]; Day 7, nominal 100 mg/kg bw): 75.7 ng/mL/mg/kg
AUC0–24 h/dose ([5]; Day 90, nominal 10 mg/kg bw): 1070 ng·h/mL/mg/kg
Cmax/dose ([5]; Day 90, nominal 10 mg/kg bw): 78.3 ng/mL/mg/kg
AUC0–24 h/dose ([5]; Day 90, nominal 30 mg/kg bw): 1560 ng·h/mL/mg/kg
Cmax/dose ([5]; Day 90, nominal 30 mg/kg bw): 98.0 ng/mL/mg/kg
AUC0–24 h/dose ([5]; Day 90, nominal 100 mg/kg bw): 1730 ng·h/mL/mg/kg
Cmax/dose ([5]; Day 90, nominal 100 mg/kg bw): 97.5 ng/mL/mg/kg
ACUM Ratio ([5]; Day 90/Day 7, nominal 10 mg/kg bw): 1.86
ACUM Ratio ([5]; Day 90/Day 7, nominal 30 mg/kg bw): 1.37
ACUM Ratio ([5]; Day 90/Day 7, nominal 100 mg/kg bw): 1.35
AUC(0-t) ([5]; both, Sprague-Dawley (Crl:CD(SD)), rat, plasma, po, 100 mg/kg bw/day, Combined mean AUC0-24hr, Day 90, 100 mg/kg bw/day): 184000 ng·h/mL
Micronucleus formation (in vitro), result ([6]; 16–63 μg/mL, 19 h exposure, −S9): Negative
Micronucleus formation (in vitro), result ([6]; 50–200 μg/mL, 3 h exposure, +S9): Negative
Micronucleus formation (in vitro), result ([6]; 100–300 μg/mL, 3 h exposure, −S9): Negative
% cells in cytostasis ([6]; 3 h, +S9, 50 μg/mL): −1%
% cells in cytostasis ([6]; 3 h, +S9, 100 μg/mL): −2%
% cells in cytostasis ([6]; 3 h, −S9, 100 μg/mL): 1%
% cells in cytostasis ([6]; 3 h, −S9, 200 μg/mL): 0%
% cells in cytostasis ([6]; 3 h, −S9, 300 μg/mL): 25%
% cells in cytostasis ([6]; 3 h, −S9, 450 μg/mL): 93%
% cells in cytostasis ([6]; 19 h, −S9, 16 μg/mL): 10%
% cells in cytostasis ([6]; 19 h, −S9, 63 μg/mL): 50%
% cells in cytostasis ([6]; 19 h, −S9, 130 μg/mL): 93%
Induction of micronuclei, conclusion ([6]; all conditions): did not induce micronuclei
IC50 (CYP3A4): > 10 µM
inhibition at 10 µM (CYP3A4): < 50%
inhibition at 10 µM (CYP3A4; probe midazolam): 30%
inhibition at 10 µM (CYP2C19): 13%
Chromosome aberration (in vitro), result ([7]; 63–250 μg/mL, 3 h exposure, +S9): Negative
Chromosome aberration (in vitro), result ([7]; 63–250 μg/mL, 20 h exposure, −S9): Negative
Chromosome aberration (in vitro), result ([7]; 130–500 μg/mL, 3 h exposure, −S9): Negative
Induction of structural and numerical chromosome aberrations, conclusion ([7]; non-activated and S9-activated): negative
concentration at 0.25 h [8, 21]: 86000 ng/mL
concentration at 0.5 h [8, 21]: 81400 ng/mL
concentration at 1 h [8, 21]: 55900 ng/mL
concentration at 2 h [8, 21]: 29200 ng/mL
concentration at 4 h [8, 21]: 14100 ng/mL
concentration at 8 h [8, 21]: 4830 ng/mL
concentration at 24 h [8, 21]: 63 ng/mL
% Peak Area [8, 22]: 55.52%
Peak Area (×10^6) [8, 22]: 69.9

Reference: paper PMC5615911 (Toxicology Reports, 2016)
